Measurements taken from patent US11358949B2, “Carbamate and urea compounds as multikinase inhibitors” (ANGEX PHARMACEUTICAL, INC., priority 2017, dated 2022).

What was measured:
FMS = FMS (Homo sapiens, UniProt P07333); assay: HotSpot Kinase Assay, FMS
TYRO3/SKY = target: T1, TYRO3/SKY (Homo sapiens, UniProt Q06418); assay: HotSpot Kinase Assay, TYRO3/SKY
T1 sequence (Q06418 41-890): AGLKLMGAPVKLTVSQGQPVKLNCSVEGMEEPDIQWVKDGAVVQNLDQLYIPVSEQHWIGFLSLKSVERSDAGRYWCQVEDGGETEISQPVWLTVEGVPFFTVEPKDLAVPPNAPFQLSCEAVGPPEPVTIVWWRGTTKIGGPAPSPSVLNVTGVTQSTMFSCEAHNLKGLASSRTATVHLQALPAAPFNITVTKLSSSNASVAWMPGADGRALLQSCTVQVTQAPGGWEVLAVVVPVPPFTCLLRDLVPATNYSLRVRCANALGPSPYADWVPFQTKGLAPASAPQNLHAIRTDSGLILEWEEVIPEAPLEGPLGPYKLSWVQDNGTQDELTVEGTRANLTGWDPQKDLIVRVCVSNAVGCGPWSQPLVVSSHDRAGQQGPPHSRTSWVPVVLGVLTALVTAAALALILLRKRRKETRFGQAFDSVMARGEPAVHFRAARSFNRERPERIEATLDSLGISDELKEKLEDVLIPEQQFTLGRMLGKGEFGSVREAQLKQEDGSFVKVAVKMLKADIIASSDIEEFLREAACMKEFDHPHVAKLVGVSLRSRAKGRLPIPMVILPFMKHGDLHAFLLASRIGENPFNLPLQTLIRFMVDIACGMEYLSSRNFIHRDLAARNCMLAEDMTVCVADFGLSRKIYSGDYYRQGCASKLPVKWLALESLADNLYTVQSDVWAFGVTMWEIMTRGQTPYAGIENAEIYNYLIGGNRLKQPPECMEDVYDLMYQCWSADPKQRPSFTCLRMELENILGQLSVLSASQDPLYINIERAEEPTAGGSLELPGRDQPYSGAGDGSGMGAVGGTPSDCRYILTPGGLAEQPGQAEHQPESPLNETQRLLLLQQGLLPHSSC

c-MER = target: T2, c-MER (Homo sapiens, UniProt Q12866); assay: HotSpot Kinase Assay, c-MER
T2 sequence (Q12866 21-999): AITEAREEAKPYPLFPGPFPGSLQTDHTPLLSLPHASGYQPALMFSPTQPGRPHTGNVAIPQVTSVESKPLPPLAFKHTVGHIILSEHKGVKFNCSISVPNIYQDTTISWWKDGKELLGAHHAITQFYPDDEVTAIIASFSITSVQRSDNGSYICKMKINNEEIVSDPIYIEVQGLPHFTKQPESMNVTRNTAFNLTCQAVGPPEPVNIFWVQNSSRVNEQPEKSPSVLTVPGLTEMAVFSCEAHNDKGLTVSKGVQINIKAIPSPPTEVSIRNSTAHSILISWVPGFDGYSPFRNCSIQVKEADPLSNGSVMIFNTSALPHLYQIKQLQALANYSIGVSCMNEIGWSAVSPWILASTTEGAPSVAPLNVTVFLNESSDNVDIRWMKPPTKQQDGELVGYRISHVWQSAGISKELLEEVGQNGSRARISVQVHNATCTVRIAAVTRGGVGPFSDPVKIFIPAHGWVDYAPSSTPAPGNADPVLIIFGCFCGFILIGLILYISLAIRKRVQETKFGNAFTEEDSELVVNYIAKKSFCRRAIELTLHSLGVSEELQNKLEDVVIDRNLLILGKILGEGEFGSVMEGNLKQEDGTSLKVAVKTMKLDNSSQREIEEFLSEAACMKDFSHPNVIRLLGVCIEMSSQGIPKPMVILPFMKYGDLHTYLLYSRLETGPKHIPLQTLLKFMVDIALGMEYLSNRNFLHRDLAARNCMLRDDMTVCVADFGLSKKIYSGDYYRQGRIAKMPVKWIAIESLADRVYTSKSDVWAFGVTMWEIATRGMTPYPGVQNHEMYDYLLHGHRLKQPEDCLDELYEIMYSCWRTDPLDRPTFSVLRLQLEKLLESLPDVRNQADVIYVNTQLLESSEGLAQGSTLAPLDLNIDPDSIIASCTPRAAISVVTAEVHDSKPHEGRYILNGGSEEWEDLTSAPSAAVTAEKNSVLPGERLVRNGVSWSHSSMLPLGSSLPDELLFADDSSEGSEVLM
Method: (§1) Specifically, for each reaction, kinase and substrate were mixed in a pH 7.5 buffer containing 20 mM HEPES, 10 mM MgCl2, 1 mM EGTA [Ethylene glycol-bis(2-aminoethylether)-N,N,N′,N′-tetraacetic acid], 0.02% Brij35, 0.02 mg/mL BSA (Bovine Serum Albumin), 0.1 mM Na3VO4, 2 mM DTT, and 1% DMSO. Compounds were then added to each reaction mixture. After a 20-min incubation, ATP (Sigma-Aldrich) and [γ-^33P] ATP (PerkinElmer) were added at a final total concentration of 100 μM. Reactions were carried out at room temperature for 2 hours and spotted onto P81 ion exchange cellulose chromatography paper (Whatman). […] The percent remaining kinase activity relative to a vehicle-containing (DMSO) kinase reaction was calculated for each kinase/inhibitor pair. […] IC50 values were calculated using Prism 5 (GraphPad).

EPHA2 = EPHA2 (Homo sapiens, UniProt P29317); assay: HotSpot Kinase Assay, EPHA2
Method: as §1

c-Kit = c-Kit (Homo sapiens, UniProt P10721); assay: HotSpot Kinase Assay, c-Kit
Method: as §1

LOK/STK10 = LOK/STK10 (Homo sapiens, UniProt O94804); assay: HotSpot Kinase Assay, LOK/STK10
Method: as §1

c-MET = c-MET (Homo sapiens, UniProt P08581); assay: HotSpot Kinase Assay, c-MET
Method: as §1

AXL = target: T3, AXL (Homo sapiens, UniProt P30530); assay: HotSpot Kinase Assay, AXL
T3 sequence (P30530 26-894): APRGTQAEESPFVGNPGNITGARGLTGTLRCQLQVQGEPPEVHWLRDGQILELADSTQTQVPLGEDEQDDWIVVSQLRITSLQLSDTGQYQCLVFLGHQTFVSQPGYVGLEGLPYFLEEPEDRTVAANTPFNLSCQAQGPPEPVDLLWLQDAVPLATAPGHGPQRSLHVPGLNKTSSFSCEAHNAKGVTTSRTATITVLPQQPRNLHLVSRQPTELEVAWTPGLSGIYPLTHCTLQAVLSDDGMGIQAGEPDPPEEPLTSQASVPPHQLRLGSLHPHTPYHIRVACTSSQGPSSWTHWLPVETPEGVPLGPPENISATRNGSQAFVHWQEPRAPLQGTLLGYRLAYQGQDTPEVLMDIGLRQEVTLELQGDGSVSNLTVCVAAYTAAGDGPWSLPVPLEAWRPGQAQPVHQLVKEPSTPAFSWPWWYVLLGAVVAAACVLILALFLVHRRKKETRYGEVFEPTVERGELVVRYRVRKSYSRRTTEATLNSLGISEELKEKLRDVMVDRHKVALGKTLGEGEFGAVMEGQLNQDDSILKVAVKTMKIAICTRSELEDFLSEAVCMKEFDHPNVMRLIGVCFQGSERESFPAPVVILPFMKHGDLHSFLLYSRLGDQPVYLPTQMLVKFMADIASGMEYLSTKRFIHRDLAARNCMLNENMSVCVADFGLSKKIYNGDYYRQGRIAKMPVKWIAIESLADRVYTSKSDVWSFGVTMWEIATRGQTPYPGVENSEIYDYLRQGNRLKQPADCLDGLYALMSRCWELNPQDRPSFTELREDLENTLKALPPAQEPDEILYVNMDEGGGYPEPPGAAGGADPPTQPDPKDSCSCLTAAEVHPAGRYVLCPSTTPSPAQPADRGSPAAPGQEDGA
Method: as §1

KDR/VEGFR2 = KDR/VEGFR2 (Homo sapiens, UniProt P35968); assay: HotSpot Kinase Assay, KDR/VEGFR2
Method: as §1

DDR1 = DDR1 (Homo sapiens, UniProt Q08345); assay: HotSpot Kinase Assay, DDR1

Sequence of FMS (P07333 20-972): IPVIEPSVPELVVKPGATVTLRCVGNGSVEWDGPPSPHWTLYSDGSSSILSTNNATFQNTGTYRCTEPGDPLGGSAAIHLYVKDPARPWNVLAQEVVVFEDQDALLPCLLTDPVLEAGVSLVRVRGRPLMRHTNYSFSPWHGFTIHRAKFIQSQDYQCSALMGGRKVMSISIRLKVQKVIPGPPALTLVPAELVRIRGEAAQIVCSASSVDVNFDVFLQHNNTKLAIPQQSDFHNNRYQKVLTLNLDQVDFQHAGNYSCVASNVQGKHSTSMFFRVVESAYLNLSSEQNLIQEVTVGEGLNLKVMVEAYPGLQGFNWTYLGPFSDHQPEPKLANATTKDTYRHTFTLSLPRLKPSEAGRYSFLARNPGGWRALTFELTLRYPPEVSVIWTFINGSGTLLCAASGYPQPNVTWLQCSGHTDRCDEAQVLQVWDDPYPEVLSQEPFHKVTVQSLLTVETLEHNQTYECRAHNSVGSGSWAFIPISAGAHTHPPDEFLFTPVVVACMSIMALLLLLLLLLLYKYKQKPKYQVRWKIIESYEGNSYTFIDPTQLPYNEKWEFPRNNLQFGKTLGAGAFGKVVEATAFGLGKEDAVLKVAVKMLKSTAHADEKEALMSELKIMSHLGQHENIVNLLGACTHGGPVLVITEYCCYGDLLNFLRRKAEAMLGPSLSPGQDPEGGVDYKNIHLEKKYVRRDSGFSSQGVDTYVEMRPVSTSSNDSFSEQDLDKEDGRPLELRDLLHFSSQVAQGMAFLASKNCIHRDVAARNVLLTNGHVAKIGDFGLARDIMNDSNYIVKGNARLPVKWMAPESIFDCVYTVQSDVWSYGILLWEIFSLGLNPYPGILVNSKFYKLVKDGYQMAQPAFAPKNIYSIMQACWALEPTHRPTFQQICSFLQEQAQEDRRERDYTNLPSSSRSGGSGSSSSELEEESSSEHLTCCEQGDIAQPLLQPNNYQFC
Sequence of c-Kit (P10721 26-976): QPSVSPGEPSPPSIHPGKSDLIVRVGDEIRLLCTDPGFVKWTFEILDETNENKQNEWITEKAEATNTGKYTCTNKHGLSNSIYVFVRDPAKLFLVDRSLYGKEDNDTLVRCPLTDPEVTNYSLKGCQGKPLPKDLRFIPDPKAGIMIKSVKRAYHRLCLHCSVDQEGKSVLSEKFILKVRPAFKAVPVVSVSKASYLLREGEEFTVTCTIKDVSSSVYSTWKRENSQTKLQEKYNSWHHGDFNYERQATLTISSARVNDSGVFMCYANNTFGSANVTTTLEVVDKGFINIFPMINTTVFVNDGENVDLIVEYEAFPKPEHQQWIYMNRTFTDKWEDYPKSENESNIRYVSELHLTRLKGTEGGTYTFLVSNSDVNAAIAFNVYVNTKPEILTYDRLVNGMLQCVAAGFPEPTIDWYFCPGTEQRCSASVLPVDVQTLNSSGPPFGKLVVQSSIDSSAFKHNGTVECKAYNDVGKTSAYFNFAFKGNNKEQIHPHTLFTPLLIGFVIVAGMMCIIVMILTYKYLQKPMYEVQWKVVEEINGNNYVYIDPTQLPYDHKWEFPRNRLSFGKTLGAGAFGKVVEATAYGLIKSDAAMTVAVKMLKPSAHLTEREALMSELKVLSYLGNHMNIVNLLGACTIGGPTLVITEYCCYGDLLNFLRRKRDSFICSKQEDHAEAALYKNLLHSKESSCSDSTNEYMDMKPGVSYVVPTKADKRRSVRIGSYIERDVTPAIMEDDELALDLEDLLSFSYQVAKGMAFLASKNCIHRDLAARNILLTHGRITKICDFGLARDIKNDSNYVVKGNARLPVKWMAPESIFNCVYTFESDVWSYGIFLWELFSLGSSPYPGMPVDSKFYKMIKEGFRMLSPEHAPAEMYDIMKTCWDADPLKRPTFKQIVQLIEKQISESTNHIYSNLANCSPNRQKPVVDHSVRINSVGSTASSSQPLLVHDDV
Sequence of c-MET (P08581 25-1390): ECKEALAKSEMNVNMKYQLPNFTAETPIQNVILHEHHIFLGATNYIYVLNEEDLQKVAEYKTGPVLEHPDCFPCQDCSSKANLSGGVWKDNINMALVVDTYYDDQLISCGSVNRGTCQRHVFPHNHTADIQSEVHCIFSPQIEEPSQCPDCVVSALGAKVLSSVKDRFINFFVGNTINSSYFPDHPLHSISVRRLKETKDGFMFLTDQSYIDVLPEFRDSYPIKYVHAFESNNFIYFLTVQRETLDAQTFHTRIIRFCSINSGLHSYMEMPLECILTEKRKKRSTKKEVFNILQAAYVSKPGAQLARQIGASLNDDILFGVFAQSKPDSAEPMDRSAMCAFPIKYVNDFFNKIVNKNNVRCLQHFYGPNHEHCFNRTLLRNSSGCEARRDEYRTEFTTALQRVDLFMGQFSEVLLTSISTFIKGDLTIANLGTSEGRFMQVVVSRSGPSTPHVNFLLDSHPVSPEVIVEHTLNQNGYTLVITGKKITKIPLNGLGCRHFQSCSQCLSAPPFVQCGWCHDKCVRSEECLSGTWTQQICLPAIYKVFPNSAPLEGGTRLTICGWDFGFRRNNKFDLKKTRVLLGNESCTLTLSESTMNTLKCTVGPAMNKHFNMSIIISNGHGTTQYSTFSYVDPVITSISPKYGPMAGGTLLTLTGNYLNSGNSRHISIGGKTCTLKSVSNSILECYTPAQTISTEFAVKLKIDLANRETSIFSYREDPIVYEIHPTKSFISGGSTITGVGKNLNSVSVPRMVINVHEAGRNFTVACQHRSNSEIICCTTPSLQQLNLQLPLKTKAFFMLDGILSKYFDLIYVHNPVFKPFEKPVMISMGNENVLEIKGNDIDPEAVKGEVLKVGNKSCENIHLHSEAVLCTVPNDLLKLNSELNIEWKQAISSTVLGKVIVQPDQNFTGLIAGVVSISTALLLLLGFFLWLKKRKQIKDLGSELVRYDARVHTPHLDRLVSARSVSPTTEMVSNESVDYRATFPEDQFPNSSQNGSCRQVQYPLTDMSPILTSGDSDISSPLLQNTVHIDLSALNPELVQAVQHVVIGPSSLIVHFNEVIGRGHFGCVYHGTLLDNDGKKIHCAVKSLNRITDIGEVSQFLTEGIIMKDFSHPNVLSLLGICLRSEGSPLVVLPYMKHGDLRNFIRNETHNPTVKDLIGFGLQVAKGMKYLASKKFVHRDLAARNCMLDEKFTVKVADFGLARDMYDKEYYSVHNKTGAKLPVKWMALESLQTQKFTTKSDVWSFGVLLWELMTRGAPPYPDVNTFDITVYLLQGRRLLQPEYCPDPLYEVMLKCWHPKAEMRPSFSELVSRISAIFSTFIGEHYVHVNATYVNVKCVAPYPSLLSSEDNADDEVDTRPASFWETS
Sequence of LOK/STK10 (O94804 whole entry): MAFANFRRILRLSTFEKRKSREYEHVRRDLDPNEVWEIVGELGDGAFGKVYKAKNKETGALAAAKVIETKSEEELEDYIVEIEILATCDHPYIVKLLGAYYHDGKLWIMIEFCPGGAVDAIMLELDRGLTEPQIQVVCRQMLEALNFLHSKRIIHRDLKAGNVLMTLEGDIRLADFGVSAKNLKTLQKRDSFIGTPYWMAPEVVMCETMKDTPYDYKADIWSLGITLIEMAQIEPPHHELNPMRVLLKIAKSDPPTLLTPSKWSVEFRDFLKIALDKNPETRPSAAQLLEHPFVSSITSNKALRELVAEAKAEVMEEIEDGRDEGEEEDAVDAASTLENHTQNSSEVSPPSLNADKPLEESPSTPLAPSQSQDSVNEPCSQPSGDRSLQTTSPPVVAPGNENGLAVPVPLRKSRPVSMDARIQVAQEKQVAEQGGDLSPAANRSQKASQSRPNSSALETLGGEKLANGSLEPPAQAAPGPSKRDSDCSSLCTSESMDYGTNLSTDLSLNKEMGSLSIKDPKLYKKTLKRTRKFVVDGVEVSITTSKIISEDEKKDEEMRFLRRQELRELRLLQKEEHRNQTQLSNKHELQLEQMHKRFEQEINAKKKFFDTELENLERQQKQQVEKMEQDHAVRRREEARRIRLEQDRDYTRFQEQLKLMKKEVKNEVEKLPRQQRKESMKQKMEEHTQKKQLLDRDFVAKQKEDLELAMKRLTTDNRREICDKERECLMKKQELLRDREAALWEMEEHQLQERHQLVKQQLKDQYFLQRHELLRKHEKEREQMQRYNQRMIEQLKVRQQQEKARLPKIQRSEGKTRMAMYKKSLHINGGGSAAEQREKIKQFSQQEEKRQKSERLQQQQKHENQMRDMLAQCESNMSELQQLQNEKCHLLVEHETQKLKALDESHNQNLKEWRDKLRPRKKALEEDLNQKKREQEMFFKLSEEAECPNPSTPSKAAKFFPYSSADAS

SMILES	IC50 (FMS)	IC50 (TYRO3/SKY)	IC50 (c-MER)	IC50 (EPHA2)	IC50 (c-Kit)	IC50 (LOK/STK10)	IC50 (c-MET)	IC50 (AXL)	IC50 (KDR/VEGFR2)	IC50 (DDR1)
COc1cc2c(Oc3ccc(NC(=O)C4(C(=O)Nc5ccc(F)cc5)CC4)cc3F)ncnc2cc1OC(=O)N1CCNC[C@H]1C [Compound 9-5]	100 to 1000 nM	100 to 1000 nM	100 to 1000 nM	100 to 1000 nM	100 to 1000 nM	100 to 1000 nM	< 100 nM	< 100 nM	100 to 1000 nM	< 100 nM
COc1cc2c(Oc3ccc(NC(=O)C4(C(=O)Nc5ccc(F)cc5)CC4)cc3)ccnc2cc1OC(=O)N1CC[C@@H](O)C1 [Compound 2-4]	100 to 1000 nM	> 1000 nM	< 100 nM	100 to 1000 nM	< 100 nM	100 to 1000 nM	< 100 nM	< 100 nM	> 1000 nM	< 100 nM
COc1cc2nccc(Oc3ccc(NC(=O)C4(C(=O)Nc5ccc(F)cc5)CC4)cc3)c2cc1OC(=O)N1CCN(C)CC1(C)C [Compound 7-7]	100 to 1000 nM	100 to 1000 nM	< 100 nM	100 to 1000 nM	< 100 nM	> 1000 nM	< 100 nM	< 100 nM	100 to 1000 nM	< 100 nM
COc1cc2c(Oc3ccc(NC(=O)C4(C(=O)Nc5ccc(F)cc5)CC4)cc3)ccnc2cc1OC(=O)N1[C@H](C)CNC[C@@H]1C [Compound 6-2]	100 to 1000 nM	100 to 1000 nM	100 to 1000 nM	100 to 1000 nM	< 100 nM	100 to 1000 nM	100 to 1000 nM	< 100 nM	100 to 1000 nM	< 100 nM
COc1cc2c(Oc3ccc(NC(=O)C4(C(=O)Nc5ccc(F)cc5)CC4)cc3F)ccnc2cc1OC(=O)N1CCN(C)C[C@H]1C [Compound 3-5, 4-(2-fluoro-4-(1-((4-fluorophenyl)carbamoyl)cyclopropane-1-carboxamido)phenoxy)-6-methoxyquinolin-7-yl (R)-2,4-dimethylpiperazine-1-carboxylate]	100 to 1000 nM	100 to 1000 nM	< 100 nM	< 100 nM	< 100 nM	100 to 1000 nM	< 100 nM	< 100 nM	< 100 nM	< 100 nM
COc1cc2c(Oc3ccc(NC(=O)C4(C(=O)Nc5ccc(F)cc5)CC4)cc3)ccnc2cc1OC(=O)N1CCNC[C@H]1C [Compound 6-4]	< 100 nM	100 to 1000 nM	< 100 nM	100 to 1000 nM	< 100 nM	100 to 1000 nM	< 100 nM	< 100 nM	100 to 1000 nM	< 100 nM
COc1cc2c(Oc3ccc(NC(=O)C4(C(=O)Nc5ccc(F)cc5)CC4)cc3)ncnc2cc1OC(=O)N1CCNC[C@H]1C [Compound 8-5]	100 to 1000 nM	100 to 1000 nM	100 to 1000 nM	> 1000 nM	< 100 nM	> 1000 nM	100 to 1000 nM	100 to 1000 nM	> 1000 nM	< 100 nM
COc1cc2c(Oc3ccc(NC(=O)C4(C(=O)Nc5ccc(F)cc5)CC4)cc3)ccnc2cc1OC(=O)N1CCOCC1 [Compound 1-17]	100 to 1000 nM	> 1000 nM	< 100 nM	100 to 1000 nM	< 100 nM	100 to 1000 nM	< 100 nM	100 to 1000 nM	100 to 1000 nM	< 100 nM
COc1cc2c(Oc3ccc(NC(=O)C4(C(=O)Nc5ccc(F)cc5)CC4)cc3)ccnc2cc1OC(=O)N1CCC(F)(F)CC1 [Compound 1-13]	> 1000 nM	> 1000 nM	100 to 1000 nM	> 1000 nM	100 to 1000 nM	> 1000 nM	< 100 nM	100 to 1000 nM	> 1000 nM	< 100 nM
COc1cc2c(Oc3ccc(NC(=O)C4(C(=O)Nc5ccc(F)cc5)CC4)cc3)ccnc2cc1OC(=O)N1CCCC1 [Compound 1-14]	> 1000 nM	> 1000 nM	100 to 1000 nM	> 1000 nM	100 to 1000 nM	> 1000 nM	< 100 nM	100 to 1000 nM	> 1000 nM	< 100 nM
